Data as given in US10016382B2, “Method for decreasing skeletal muscle damage and/or oxidative stress in mammals” (LONZA INC., priority 2014, dated 2018).
“And” between values parts separate entries of the source, which are not always exact repeats. Identical values can stand only once.

What was measured:
Labrador Retrievers [1] = test: Subjective recovery score (soreness, lameness) after long runs, Example 1; assay type: in vivo, dog; conditions: Ex.1, 250 mg/d; observed 24 hr following each long run; either treatment
Excerpt: Each test dog wore an Actical activity monitor from Philips Respironics on a collar for the short higher intensity runs and also wore an Actical activity monitor for the weekly longer endurance runs. The activity data was downloaded into spread sheets along with each dogs identity. Twenty four hours after each long run during the 13 wk running program each of the dogs were scored by kennel staff for soreness or any type of lameness The exercise program was decreased in a tapering program during wk 11 and 12 to allow the dogs to rest for the final long run completed on wk 13. Pre-run serum samples from each test dog was taken 24 hr before the last endurance run. The heart rate and basal body temperature was determined for each test dog prior to the last long endurance run. A subjective recovery score was determined 24 hours after endurance run for each test dog once per week. The subjective recovery score (1-5; score of 1 for no soreness or stiffness in limbs and a score of 5 meant major soreness and stiffness) was based on ease of movement and soreness of each dog. The same subjective system was used 6 hr after the long 15 mile run and again at 24 and 48 hr to evaluate the recovery of the dogs as far as soreness and desire to move.

Labrador Retrievers [2] = test: Activity by Actical monitors, long (endurance) runs, Example 1; assay type: in vivo, dog; conditions: Ex.1, 250 mg/d; for Activity long runs, Least Sq Mean: average of 13 weekly long runs, mixed model
Excerpt: Each test dog wore an Actical activity monitor from Philips Respironics on a collar for the short higher intensity runs and also wore an Actical activity monitor for the weekly longer endurance runs. The activity data was downloaded into spread sheets along with each dogs identity. Twenty four hours after each long run during the 13 wk running program each of the dogs were scored by kennel staff for soreness or any type of lameness The exercise program was decreased in a tapering program during wk 11 and 12 to allow the dogs to rest for the final long run completed on wk 13. Pre-run serum samples from each test dog was taken 24 hr before the last endurance run. The heart rate and basal body temperature was determined for each test dog prior to the last long endurance run. The distance and number of sprints affiliated with the short runs (marks) were decreased during wk 11 back to 1200 total yd/d or 2400 yd/wk and decreased again on wk 12 to 600 yd/d or a total of 1200 yd/wk to provide rest for the final long run on wk 13. The weekly endurance run was 5 miles in the beginning, increased by ½ mile per wk and was increased to a distance of 10 miles on the 10th week. The dogs ran only a 5 mile endurance run on wk 11 and only a 2 mile endurance run on wk 12 in order to rest for the final long run during the 13th wk. The endurance (long) runs for the 40 dogs were carried out on the 5th and 6th day of each wk for both treatments. Half of the dogs were run on Friday (5th d) and half of the dogs were run on the Saturday (6th d). The exercise regimen was finalized during the 13th week of the study by resting the dogs for 3 days and then running half of the dogs from each group for a 15 mile endurance run on Monday and the remaining 20 dogs were run the 15 mile endurance run on Tuesday. The longer endurance type runs were slightly slower to enhance fat oxidation and represent an exercise intensity equivalent to 50%-65% VO2 max. Performance and Recovery Time: An Actical monitor (Philips Respironics) was worn around the neck of each dog on a collar and utilized to evaluate the amount of movement (measured total movements and intensity) for each dog for the purpose of evaluating equal work between treatments and also to evaluate the individual work intensity while completing the daily retrieves. Each dog wore the Actical monitor for each long run and wore the Actical monitor for the final 15 mile run. The Actical monitor data was downloaded to a computer for evaluation. Statistical Methods: GraphPad Prism 6.0 was used to compare means between groups for run time, food intake, body weight, and changes in blood chemistry using an unpaired t-test. Results were considered significant if a p-value of 0.05 was obtained. JMP 10.0.2 was used to create a mixed model for long runs, short runs, body composition, and blood chemistry.

In the case of `C[N+](C)(C)C[C@H](O)CC(=O)[O-]` [L-carnitine], the “Lameness or soreness after long runs (score 1-5)” value (Labrador Retrievers [1]) is reported as “no noticeable effects”, the “Activity long runs, APM/lb Mean” value (Labrador Retrievers [2]; Week 1, both sexes) is reported as 1535 Movements/Mile/LB BW and the “Activity long runs, APM/lb Mean” value (Labrador Retrievers [2]; Week 1, females) is reported as 1825 Movements/Mile/LB BW. For the same compound, the “Activity long runs, APM/lb Mean” value (Labrador Retrievers [2]; Week 1, males) was 1298 Movements/Mile/LB BW, the “Activity long runs, APM/lb Mean” value (Labrador Retrievers [2]; Week 2, both sexes) was 1385 Movements/Mile/LB BW and the “Activity long runs, APM/lb Mean” value (Labrador Retrievers [2]; Week 2, females) was 1616 Movements/Mile/LB BW. The “Activity long runs, APM/lb Mean” value (Labrador Retrievers [2]; Week 2, males) was 1177 Movements/Mile/LB BW, the “Activity long runs, APM/lb Mean” value (Labrador Retrievers [2]; Week 3, both sexes) was 1298 Movements/Mile/LB BW and the “Activity long runs, APM/lb Mean” value (Labrador Retrievers [2]; Week 3, females) was 1559 Movements/Mile/LB BW. The “Activity long runs, APM/lb Mean” value (Labrador Retrievers [2]; Week 3, males) was 1065 Movements/Mile/LB BW, the “Activity long runs, APM/lb Mean” value (Labrador Retrievers [2]; Week 4, both sexes) was 1334 Movements/Mile/LB BW and the “Activity long runs, APM/lb Mean” value (Labrador Retrievers [2]; Week 4, females) was 1522 Movements/Mile/LB BW. The “Activity long runs, APM/lb Mean” value (Labrador Retrievers [2]; Week 4, males) was 1093 Movements/Mile/LB BW, the “Activity long runs, APM/lb Mean” value (Labrador Retrievers [2]; Week 5, both sexes) was 1288 Movements/Mile/LB BW and the “Activity long runs, APM/lb Mean” value (Labrador Retrievers [2]; Week 5, females) was 1582 Movements/Mile/LB BW. For the same compound, the “Activity long runs, APM/lb Mean” value (Labrador Retrievers [2]; Week 5, males) was 1048 Movements/Mile/LB BW, the “Activity long runs, APM/lb Mean” value (Labrador Retrievers [2]; Week 6, both sexes) was 1278 Movements/Mile/LB BW and the “Activity long runs, APM/lb Mean” value (Labrador Retrievers [2]; Week 6, females) was 1472 Movements/Mile/LB BW. The “Activity long runs, APM/lb Mean” value (Labrador Retrievers [2]; Week 6, males) was 1105 Movements/Mile/LB BW, the “Activity long runs, APM/lb Mean” value (Labrador Retrievers [2]; Week 7, both sexes) was 1264 Movements/Mile/LB BW and the “Activity long runs, APM/lb Mean” value (Labrador Retrievers [2]; Week 7, females) was 1391 Movements/Mile/LB BW. The “Activity long runs, APM/lb Mean” value (Labrador Retrievers [2]; Week 7, males) was 1162 Movements/Mile/LB BW, the “Activity long runs, APM/lb Mean” value (Labrador Retrievers [2]; Week 8, both sexes) was 1241 Movements/Mile/LB BW and the “Activity long runs, APM/lb Mean” value (Labrador Retrievers [2]; Week 8, females) was 1437 Movements/Mile/LB BW. For the same compound, the “Activity long runs, APM/lb Mean” value (Labrador Retrievers [2]; Week 8, males) was 1081 Movements/Mile/LB BW, the “Activity long runs, APM/lb Mean” value (Labrador Retrievers [2]; Week 9, both sexes) was 1194 Movements/Mile/LB BW and the “Activity long runs, APM/lb Mean” value (Labrador Retrievers [2]; Week 9, females) was 1355 Movements/Mile/LB BW. The “Activity long runs, APM/lb Mean” value (Labrador Retrievers [2]; Week 9, males) was 1062 Movements/Mile/LB BW, the “Activity long runs, APM/lb Mean” value (Labrador Retrievers [2]; Week 10, both sexes) was 1192 Movements/Mile/LB BW and the “Activity long runs, APM/lb Mean” value (Labrador Retrievers [2]; Week 10, females) was 1385 Movements/Mile/LB BW. For the same compound, the “Activity long runs, APM/lb Mean” value (Labrador Retrievers [2]; Week 10, males) was 1018 Movements/Mile/LB BW, the “Activity long runs, APM/lb Mean” value (Labrador Retrievers [2]; Week 11, both sexes) was 1364 Movements/Mile/LB BW and the “Activity long runs, APM/lb Mean” value (Labrador Retrievers [2]; Week 11, females) was 1655 Movements/Mile/LB BW. The “Activity long runs, APM/lb Mean” value (Labrador Retrievers [2]; Week 11, males) was 1126 Movements/Mile/LB BW, the “Activity long runs, APM/lb Mean” value (Labrador Retrievers [2]; Week 13, both sexes) was 1116 Movements/Mile/LB BW and the “Activity long runs, APM/lb Mean” value (Labrador Retrievers [2]; Week 13, females) was 1251 Movements/Mile/LB BW. For the same compound, the “Activity long runs, APM/lb Mean” value (Labrador Retrievers [2]; Week 13, males) was 1006 Movements/Mile/LB BW, the “Activity long runs, Least Sq Mean” value (Labrador Retrievers [2]; both sexes) was 1317 Movements/Mile/LB BW and 1317.0647 Movements/Mile/LB BW and the “Activity long runs, Least Sq Mean” value (Labrador Retrievers [2]; females) was 1509 Movements/Mile/LB BW and 1509.2493 Movements/Mile/LB BW. The “Activity long runs, Least Sq Mean” value (Labrador Retrievers [2]; males) was 1124 Movements/Mile/LB BW and 1124.8801 Movements/Mile/LB BW.
